This assay deals with T1, ROCK2 (Rattus norvegicus, UniProt Q62868).
T1 construct: Full length rat ROCK1 and ROCK2 proteins were isolated from various tumor cell lines or tissues by immunoabsorption; endogenous in cells
The experiment in a line: Inhibition of ROCK2 enzymatic activity, immunoabsorbed full length enzyme, S6 kinase substrate peptide, [γ33P]ATP. The conditions noted are these: for Ki: ROCK2. It is filed as biochemical. The method, then:
Full length rat ROCK1 and ROCK2 proteins were isolated from various tumor cell lines or tissues by immunoabsorption to 24-well microtiter plates pre-coated with antibodies specific for each isozyme. Reactions were initiated by the addition of S6 kinase substrate peptide, [γ33P]ATP, and study drug, and incubated at 37° C. for 20 minutes. Reactions were terminated by addition of phosphoric acid and the radioactivity was quantified using standard methods.

T1 sequence (Q62868 whole entry): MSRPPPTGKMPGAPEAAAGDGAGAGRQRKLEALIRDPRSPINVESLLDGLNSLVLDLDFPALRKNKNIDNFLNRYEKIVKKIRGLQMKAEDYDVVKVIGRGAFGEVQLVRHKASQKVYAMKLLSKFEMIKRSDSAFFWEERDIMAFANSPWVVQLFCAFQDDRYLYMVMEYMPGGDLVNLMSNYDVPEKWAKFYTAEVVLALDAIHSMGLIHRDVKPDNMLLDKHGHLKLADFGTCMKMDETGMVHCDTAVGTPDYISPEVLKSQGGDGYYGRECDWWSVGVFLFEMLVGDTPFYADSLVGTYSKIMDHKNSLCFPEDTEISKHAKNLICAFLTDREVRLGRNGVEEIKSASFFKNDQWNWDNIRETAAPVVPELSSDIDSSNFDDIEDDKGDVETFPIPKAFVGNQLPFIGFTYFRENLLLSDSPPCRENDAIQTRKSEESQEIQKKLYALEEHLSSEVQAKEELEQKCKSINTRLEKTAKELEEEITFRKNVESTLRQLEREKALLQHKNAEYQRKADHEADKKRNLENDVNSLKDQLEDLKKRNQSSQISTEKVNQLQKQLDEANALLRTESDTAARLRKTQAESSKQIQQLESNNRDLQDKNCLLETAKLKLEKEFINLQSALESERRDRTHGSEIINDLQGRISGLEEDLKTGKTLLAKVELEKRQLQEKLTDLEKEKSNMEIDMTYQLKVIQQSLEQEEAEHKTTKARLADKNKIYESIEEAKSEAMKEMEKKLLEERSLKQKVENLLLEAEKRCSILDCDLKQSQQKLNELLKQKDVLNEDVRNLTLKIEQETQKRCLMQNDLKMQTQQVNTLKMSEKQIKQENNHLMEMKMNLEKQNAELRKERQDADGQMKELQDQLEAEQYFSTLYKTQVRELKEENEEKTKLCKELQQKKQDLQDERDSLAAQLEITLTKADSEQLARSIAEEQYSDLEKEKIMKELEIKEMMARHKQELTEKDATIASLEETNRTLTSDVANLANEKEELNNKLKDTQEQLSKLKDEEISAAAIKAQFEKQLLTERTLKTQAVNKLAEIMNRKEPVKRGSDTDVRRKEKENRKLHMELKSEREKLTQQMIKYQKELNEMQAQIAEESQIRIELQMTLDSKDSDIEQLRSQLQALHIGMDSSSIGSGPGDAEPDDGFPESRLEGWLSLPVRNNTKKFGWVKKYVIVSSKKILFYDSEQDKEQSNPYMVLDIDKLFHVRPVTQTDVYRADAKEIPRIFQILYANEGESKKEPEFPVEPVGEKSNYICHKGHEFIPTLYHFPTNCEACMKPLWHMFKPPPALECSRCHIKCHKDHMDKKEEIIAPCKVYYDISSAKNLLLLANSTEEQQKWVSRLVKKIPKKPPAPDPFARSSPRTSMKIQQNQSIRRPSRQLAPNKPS

One may read the Ki as a dissociation constant, usually derived from enzyme kinetics or from competition with a known ligand. Read a low Ki as a stronger hold on the target. Turning to `O=C(O)COc1cccc(-c2nc(Nc3ccc4[nH]ncc4c3)c3ccccc3n2)c1` [KD025m2, 2-(3-(4-(1H-indazol-5-ylamino)quinazolin-2-yl)phenoxy)acetic acid], affinity was put at a Ki of 338 ± 55 nM. For the setting “fold lower inhibition than belumosudil”, the “inhibition of ROCK2 (Ki) relative to belumosudil” value was “approximately 6 fold”.

The molecule `CC(N)C1CCC(C(=O)Nc2ccncc2)CC1` (stereo not drawn) [Y-27362] displayed an inhibition constant (Ki) of 45 ± 5 nM.

The values above are taken from US11952369B2 (Kadmon Corporation, LLC, priority 2022, dated 2024).
